Like-named read-outs stand apart in the source and are kept apart here. Square brackets hold non-standard residues; d marks the D form. Peptide text beside a SMILES is read from it. AEEA = NCCOCCOCC(=O)O
Tests used:
[1] = test system: P. aeruginosa (ATCC® 27853™); experiment: Mouse model of Pseudomonas keratitis (CFU/eye); type: in vivo, Pseudomonas aeruginosa in C57/BL mice; details: 10 and 20 mg/ml groups together
Method: A circular wound (2 mm) was created on the mouse cornea by removing the epithelium and infecting the wound with 10^5 CFU of P. aeruginosa (ATCC® 27853™ (American Type Culture Collection, Manassas, Va.)). Infected wounds were treated with saline or saline containing indicated concentrations of peptide every 15 minutes for 2 hours, then every 30 minutes for 3 hours on the first day. Infected wounds were treated twice on the second day and once on the third day. Mice were killed at 48 hours post-infection, and the colony forming units per eye (CFU/eye) were quantified. The means are plotted and are representative of 5 to 9 mice per group. Mann Whitney test was performed for each group as compared to the saline control group.
For FIGS. 15-17, in vivo bactericidal activity of the peptides was also investigated using the standard Pseudomonas keratitis model in the mouse eye (FIGS. 15-17). Peptides 120-146QR-5RMP (SEQ ID NO: 32), 120-146WH (SEQ ID NO: 31), and 120-146WR (SEQ ID NO: 30) were applied topically at doses of 2, 5, 10, and 20 mg/ml to the wounded cornea that had been infected with 10^5 CFU of Pseudomonas aeruginosa. The efficacies of the peptides were compared to treatment with the vehicle control. Mice were euthanized at 48 hours post infection, and the CFU/eye were quantified.

[2] = test system: Pseudomonas aeruginosa ATCC® 27853™; type: cell-based; parameters: Effects of Peptide Compounds on Pseudomonas aeruginosa ATCC ® 27853 ™: unit not given here; details: Table 6
Method: (§1) In vitro bactericidal activity: The three peptide compounds BCC01-5RMP (SEQ ID NO: 21), BCC02-5RMP (SEQ ID NO: 22), and BCC03-5RMP (SEQ ID NO: 23) were assayed for in vitro bactericidal activity against Pseudomonas aeruginosa, Escherichia coli, Salmonella typhimurium, and Acinetobacter baumannii. The starting inoculum for all experiments was 1×10^6 colony forming units (CFU)/ml. The CFU remaining at the end of 60 to 180 minute incubation was determined, and the data plotted as a log reduction in CFU/ml.
(§2) For FIGS. 10-13, in vitro bactericidal assays were performed using a starting inoculum of 1×10^6 CFU/ml of the bacterial suspension. The CFU remaining at the end of the 60-180 minute incubation was determined, and the data was plotted as log reduction in CFU/ml.
(§3) In particular, each of the test peptides (CAP37 peptides 120-146WR, 120-146WH, and 95-122 (SEQ ID NOs: 30, 31, and 26, respectively)) was used at 25, 12.5, 6.25, and 3.12 μM. Gentamicin was used at 4 μg/ml. 1×10^6/ml Acinetobacter baumannii ATCC® BAA-747™ or Pseudomonas aeruginosa ATCC® 27853™ (American Type Culture Collection, Manassas, Va.) were incubated with the peptides, negative buffer control (tryptone saline), and positive control gentamicin at pH 5.5 or 7.2. A 60 minute incubation was used for Acinetobacter baumannii ATCC® BAA-747™, while a 180 minute incubation was used for Pseudomonas aeruginosa ATCC® 27853™. 50 μl aliquots were plated out on agar plates and incubated overnight. Colony forming units were counted after overnight incubation and CFU/ml calculated.
For FIG. 14, 1×10^6/ml Pseudomonas aeruginosa ATCC® 27853™ were incubated with each of the test peptides (CAP37 peptides 120-146WR, 120-146WH, 120-146QR, 120-146QH, 120-146QR-5RMP, and 120-146QH-5RMP (SEQ ID NOs: 30, 31, 28, 29, 32, and 33, respectively)) at 150, 75, and 37.5 μg/ml, or negative buffer control (tryptone saline), for 180 minutes at pH 5.5. 50 μl aliquots were plated out on agar plates and incubated overnight. Colony forming units were counted after overnight incubation and CFU/ml calculated.

[3] = test system: E. coli ATCC® strain 25922™; type: cell-based, Escherichia coli; parameters: unit not given here; details: Peptide Conc 1.56 μg/ml; Table 6
Method: as §1

[4] = test system: Acinetobacter baumannii ATCC® BAA-747™; type: cell-based; details: starting inoculum 1×10^6 CFU/ml; 60 to 180 minute incubation
Method: as §1, §2, §3

Salmonella typhimurium = experiment: In vitro bactericidal assay; type: cell-based
Method: as §1

Pseudomonas LPS = experiment: LPS binding, Limulus Amebocyte Lysate (LAL) assay
Method: (§4) The well-characterized response of RAW264.7 macrophage cells was used to produce tumor necrosis-factor-alpha (TNF-α) in response to LPS to determine whether the peptides could dampen the release of this cytokine. […] Importantly, pre-treatment (3 hours prior to LPS addition) as well as post-treatment of the RAW264.7 cells (3 hours post LPS addition) with peptide dampened the cytokine release. […] The finding that the novel peptides bind and neutralize the effect of Pseudomonas LPS is of critical importance since this ensures that the novel therapeutic peptide compounds described herein will not only kill the bacteria, but will also neutralize the LPS endotoxin released by the bacteria which plays such an important role in the rapid progression of sepsis.
(§5) BCC01-5RMP (SEQ ID NO: 21), BCC02-5RMP (SEQ ID NO: 22), and BCC03-5RMP (SEQ ID NO: 23) were tested for their ability to bind lipopolysaccharide (LPS) using the limulus amebocyte lysate method (LAL). […] There was no statistical difference in their ability to bind LPS using the LAL technique. The ability of the peptides to neutralize LPS was assessed by determining their ability to attenuate the release of tumor necrosis factor-alpha (TNF-α) from LPS-stimulated RAW264.7 cells (a mouse macrophage cell line). […] No significant differences were observed between the three peptides to neutralize LPS as measured by cytokine release.

RAW264.7 cells = experiment: LPS neutralization: TNF-α release from LPS-stimulated RAW264.7 cells; type: cell-based, mouse
Method: as §4, §5

Row | SMILES | mice with no viable bacteria in the eye after treatment [1] | Effects of Peptide Compounds on Pseudomonas aeruginosa ATCC ® 27853 ™ ([2]; Peptide Conc 25 μg/ml) | Effects of Peptide Compounds on Pseudomonas aeruginosa ATCC ® 27853 ™ ([2]; Peptide Conc 50 μg/ml) | Effects of Peptide Compounds on Pseudomonas aeruginosa ATCC ® 27853 ™ ([2]; Peptide Conc 100 μg/ml) | Effects of Peptide Compounds on Pseudomonas aeruginosa ATCC ® 27853 ™ ([2]; Peptide Conc 200 μg/ml) | Effects of Peptide Compounds on Escherichia coli ATCC ® 25922 ™ [3] | activity against Acinetobacter baumannii [4] | activity against Salmonella typhimurium (Salmonella typhimurium) | binding of Pseudomonas LPS (LAL) (Pseudomonas LPS) | release of TNF-α in response to Pseudomonas LPS (RAW264.7 cells)
1 | CC(C)C[C@H](NC(=O)[C@H](CCCNC(=N)N)NC(=O)CNC(=O)CNC(=O)[C@H](CO)NC(=O)[C@H](CCCNC(=N)N)NC(=O)[C@H](CCC(N)=O)NC(=O)[C@H](CO)NC(=O)CNC(=O)[C@H](Cc1c[nH]c2ccccc12)NC(=O)CNC(=O)[C@H](C)NC(=O)[C@@H](NC(=O)[C@H](CCC(N)=O)NC(=O)[C@H](CS)NC(=O)[C@H](CCCNC(=N)N)NC(=O)[C@@H](NC(=O)CNC(=O)[C@H](CCCNC(=N)N)NC(=O)[C@H](CCCNC(=N)N)NC(=O)[C@H](CCCNC(=N)N)NC(=O)[C@H](CCCNC(=N)N)NC(=O)COCCOCCNC(=O)COCCOCCN)[C@@H](C)O)C(C)C)C(=O)N[C@@H](CO)C(=O)N[C@@H](CCCNC(=N)N)C(=O)N[C@@H](Cc1ccccc1)C(=O)N1CCC[C@H]1C(=O)N[C@@H](CCCNC(=N)N)C(=O)N[C@@H](Cc1ccccc1)C(=O)N[C@H](C(=O)N[C@@H](CC(N)=O)C(=O)N[C@H](C(=O)N[C@@H](CCCNC(=N)N)C(=O)O)C(C)C)C(C)C [120-146QR-5RMP] (H-[AEEA][AEEA]RRRRGTRCQVAGWGSQRSGGRLSRFPRFVNVR-OH; N-terminus and C-terminus assumed) | Six of the 10 mice | – | – | – | – | – | – | – | – | –
2 | CC[C@H](C)[C@H](NC(=O)[C@H](CC(C)C)NC(=O)[C@H](C)NC(=O)CNC(=O)CNC(=O)[C@H](CS)NC(=O)[C@H](Cc1ccccc1)NC(=O)[C@H](Cc1c[nH]cn1)NC(=O)[C@H](CCCNC(=N)N)NC(=O)CNC(=O)[C@H](CCC(N)=O)NC(=O)[C@H](CC(N)=O)NC(=O)[C@H](CCCNC(=N)N)NC(=O)[C@H](CCCNC(=N)N)NC(=O)[C@H](CCCNC(=N)N)NC(=O)[C@H](CCCNC(=N)N)NC(=O)COCCOCCNC(=O)COCCOCCN)C(=O)N[C@@H](Cc1c[nH]cn1)C(=O)N[C@@H](C)C(=O)N[C@@H](CCCNC(=N)N)C(=O)N[C@@H](Cc1ccccc1)C(=O)N[C@H](C(=O)N[C@@H](CCSC)C(=O)N[C@H](C(=O)N[C@@H](C)C(=O)N[C@@H](C)C(=O)N[C@@H](CO)C(=O)N[C@@H](CO)C(=O)N[C@@H](Cc1ccccc1)C(=O)N[C@@H](CCC(N)=O)C(=O)N[C@@H](CCCNC(=N)N)C(=O)O)[C@@H](C)O)C(C)C [BCC03-5RMP] (H-[AEEA][AEEA]RRRRNQGRHFCGGALIHARFVMTAASSFQR-OH; N-terminus assumed) | – | 100.0 | 100.0 | 100.0 | 100.0 | 23.0 | most active | strong, but lesser activity | bound Pseudomonas LPS | attenuate the release of TNF-α
